pIC50: −log10 of the molar value. Read-outs that look alike come from different tables or passages of the source. A value given as a limit tells only on which side of the number the result lay.

For the assay, the target named is T1, P2X7 receptor (Homo sapiens, UniProt Q99572).
T1 construct: host or cells: SH-SY5Y
T1 sequence (Q99572 1-595): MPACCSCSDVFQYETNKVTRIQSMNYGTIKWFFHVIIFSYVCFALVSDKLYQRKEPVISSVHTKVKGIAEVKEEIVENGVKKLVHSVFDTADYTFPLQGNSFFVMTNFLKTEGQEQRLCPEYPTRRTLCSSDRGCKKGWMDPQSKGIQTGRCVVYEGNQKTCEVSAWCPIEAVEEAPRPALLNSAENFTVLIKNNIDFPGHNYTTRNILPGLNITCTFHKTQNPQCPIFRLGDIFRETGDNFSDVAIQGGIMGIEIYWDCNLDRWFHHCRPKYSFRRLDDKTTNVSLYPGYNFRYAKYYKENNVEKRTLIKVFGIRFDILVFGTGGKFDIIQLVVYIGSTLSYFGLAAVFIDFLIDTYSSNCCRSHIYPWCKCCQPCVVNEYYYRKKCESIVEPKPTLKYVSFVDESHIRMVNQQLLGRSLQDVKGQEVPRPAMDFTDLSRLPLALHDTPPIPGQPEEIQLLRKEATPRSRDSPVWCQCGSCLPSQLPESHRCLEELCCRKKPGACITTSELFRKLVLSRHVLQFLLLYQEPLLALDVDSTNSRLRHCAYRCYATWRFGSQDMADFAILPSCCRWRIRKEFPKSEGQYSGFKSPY
The assay can be described thus: P2X7 calcium mobilization assay, high throughput, antagonist activity (Example 4A). The format is cell-based. Conditions: Example 4A, read-out: IC50. Put shortly:
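Dye-loaded cells (100,000/well, seeded previous day) are pre-exposed to compound for an hour at room temperature. Fluorescence maxima are baseline-corrected against no-agonist wells and compared with the averaged agonist-well maximum.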

Where [1] appears, read: 50% decrease in the fluorescence response of cells exposed to 80 μM 2′(3′)-O-(4-benzoyl-benzoyl)adenosine 5′-triphosphate.
The mark [2] stands for this setting: 50% decrease in the fluorescence response of cells exposed to 80 μM of 2′(3′)-O-(4-benzoyl-benzoyl)adenosine 5′-triphosphate.

The pIC50 is the IC50 on a negative log10 scale, so that one unit is a factor of ten. Turning to `CN(C(=O)c1cn2c(C(=O)NCC34CC5CC(CC(C5)C3)C4)cccc2n1)C1CCNCC1` [Compound 606, 5-N-(adamantan-1-ylmethyl)-2-N-methyl-2-N-piperidin-4-ylimidazo[1,2-a]pyridine-2,5-dicarboxamide], the pIC50 under setting [1] is above 5.70.
Regarding `O=C(NCC12CC3CC(CC(C3)C1)C2)c1cccc2nc(C(=O)N3CCCNCC3)cn12` [Compound 608, N-(adamantan-1-ylmethyl)-2-(1,4-diazepan-1-ylcarbonyl)imidazo[1,2-a]pyridine-5-carboxamide], the pIC50 under setting [1] was above 5.70.
Turning to `O=C(NCC12CC3CC(CC(C3)C1)C2)c1cccc2nc(C(=O)N3C[C@@H]4C[C@H]3CN4)cn12` [Compound 609, N-(adamantan-1-ylmethyl)-2-[(1S,4S)-2,5-diazabicyclo [2.2.1]hept-2-ylcarbonyl]imidazo[1,2-a]pyridine-5-carboxamide], the pIC50 under setting [1] was above 5.70.
The same measure, in the same setting: in the case of `CN(C)CCCN(C(=O)c1cn2c(C(=O)NCC34CC5CC(CC(C5)C3)C4)cccc2n1)C1CCNCC1` [Compound 610, 5-N-(adamantan-1-ylmethyl)-2-N-[3-(dimethylamino)propyl]-2-N-piperidin-4-ylimidazo[1,2-a]pyridine-2,5-dicarboxamide] it was above 5.70; in that of `CNC1CCN(C(=O)c2cn3c(C(=O)NCC45CC6CC(CC(C6)C4)C5)cccc3n2)C1` (stereo not shown) [Compound 611, N-(adamantan-1-ylmethyl)-2-{[3-(methylamino)pyrrolidin-1-yl]carbonyl}imidazo[1,2-a]pyridine-5-carboxamide], above 5.70; in that of `CC(C)[C@H]1CNCCN1C(=O)c1cn2c(C(=O)NCC34CC5CC(CC(C5)C3)C4)cccc2n1` [Compound 612, N-(adamantan-1-ylmethyl)-2-{[(2S)-2-isopropylpiperazin-1-yl]carbonyl}imidazo[1,2-a]pyridine-5-carboxamide], above 5.70.
Still for that read-out and setting: under `CC(C)[C@@H]1CNCCN1C(=O)c1cn2c(C(=O)NCC34CC5CC(CC(C5)C3)C4)cccc2n1` [Compound 613, N-(adamantan-1-ylmethyl)-2-{[(2R)-2-isopropylpiperazin-1-yl]carbonyl}imidazo[1,2-a]pyridine-5-carboxamido] stands above 5.70; under `CC(C)[C@@H]1CN(C(=O)c2cn3c(C(=O)NCC45CC6CC(CC(C6)C4)C5)cccc3n2)CCN1` [Compound 614, N-(adamantan-1-ylmethyl)-2-{[(3R)-3-isopropylpiperazin-1-yl]carbonyl}imidazo[1,2-a]pyridine-5-carboxamide], above 5.70; under `CC(C)[C@H]1CN(C(=O)c2cn3c(C(=O)NCC45CC6CC(CC(C6)C4)C5)cccc3n2)CCN1` [Compound 615, N-(adamantan-1-ylmethyl)-2-{[(3S)-3-isopropylpiperazin-1-yl]carbonyl}imidazo[1,2-a]pyridine-5-carboxamide], above 5.70.
The same measure, in the same setting: in the case of `C[C@H]1CN(C(=O)c2cn3c(C(=O)NCC45CC6CC(CC(C6)C4)C5)cccc3n2)CCN1` [Compound 616, N-(adamantan-1-ylmethyl)-2-{[(3S)-3-methylpiperazin-1-yl]carbonyl}imidazo[1,2-a]pyridine-5-carboxamide] it was above 5.70; in that of `CN(C)CCN(C(=O)c1cn2c(C(=O)NCC34CC5CC(CC(C5)C3)C4)cccc2n1)C1CCNCC1` [Compound 617, 5-N-(adamantan-1-ylmethyl)-2-N-[2-(dimethylamino)ethyl]-2-N-piperidin-4-ylimidazo[1,2-a]pyridine-2,5-dicarboxamide], above 5.70.
As to `COCCN(C(=O)c1cn2c(C(=O)NCC34CC5CC(CC(C5)C3)C4)cccc2n1)C1CCNCC1` [Compound 618, 5-N-(adamantan-1-ylmethyl)-2-N-(2-methoxyethyl)-2-N-piperidin-4-yl imidazo[1,2-a]pyridine-2,5-dicarboxamide], under setting [2], the pIC50 was above 5.70.
Same read-out and setting: under `COCCCN(C(=O)c1cn2c(C(=O)NCC34CC5CC(CC(C5)C3)C4)cccc2n1)C1CCNCC1` [Compound 619, 5-N-(adamantan-1-ylmethyl)-2-N-(3-methoxypropyl)-2-N-piperidin-4-ylimidazo[1,2-a]pyridine-2,5-dicarboxamide] stands above 5.70; under `CN(C)CCN(C(=O)c1cn2c(C(=O)NCC34CC5CC(CC(C5)C3)C4)cccc2n1)C1CCNCC1(C)C` (stereo not shown) [Compound 620, 5-N-(adamantan-1-ylmethyl)-2-N-[2-(dimethylamino)ethyl]-2-N-(3,3-dimethylpiperidin-4-yl)imidazo[1,2-a]pyridine-2,5-dicarboxamide], above 5.70.
As for `CN(C)CCCN(C(=O)c1cn2c(C(=O)NCC34CC5CC(CC(C5)C3)C4)cccc2n1)C1CCNCC1(C)C` (stereo not shown) [Compound 621, 5-N-(adamantan-1-ylmethyl)-2-N-[3-(dimethylamino)propyl]-2-N-(3,3-dimethylpiperidin-4-yl)imidazo[1,2-a]pyridine-2,5-dicarboxamide], under setting [2], the pIC50 was above 5.70.
In the case of `NCC1CCCN1C(=O)c1cn2c(C(=O)NCC34CC5CC(CC(C5)C3)C4)cccc2n1` (stereo not shown) [Compound 622, N-(adamantan-1-ylmethyl)-2-{[2-(aminomethyl)pyrrolidin-1-yl]carbonyl} imidazo[1,2-a]pyridine-5-carboxamide], under setting [2], the pIC50 is above 5.70.
Still for that read-out and setting: in the case of `COCCN(C(=O)c1cn2c(C(=O)NCC34CC5CC(CC(C5)C3)C4)cccc2n1)C1CCNCC1(C)C` (stereo not shown) [Compound 623, 5-N-(adamantan-1-ylmethyl)-2-N-(3,3-dimethylpiperidin-4-yl)-2-N-(2-methoxyethyl)imidazo [1,2-a]pyridine-2,5-dicarboxamide] it was above 5.70; in that of `NC1CCN(C(=O)c2cn3c(C(=O)NCC45CC6CC(CC(C6)C4)C5)cccc3n2)C1` (stereo not shown) [Compound 625, N-(adamantan-1-ylmethyl)-2-[(3-aminopyrrolidin-1-yl)carbonyl] imidazo[1,2-a]pyridine-5-carboxamide], above 5.70.
With `NC1CCN(C(=O)c2cn3c(C(=O)NCC45CC6CC(CC(C6)C4)C5)cccc3n2)CC1` [Compound 626, N-(adamantan-1-ylmethyl)-2-[(4-aminopiperidin-1-yl)carbonyl]imidazo[1,2-a]pyridine-5-carboxamide], the pIC50 under setting [2] was above 5.70.
Same read-out and setting: in the case of `NC1CCCN(C(=O)c2cn3c(C(=O)NCC45CC6CC(CC(C6)C4)C5)cccc3n2)C1` (stereo not shown) [Compound 627, N-(adamantan-1-ylmethyl)-2-[(3-aminopiperidin-1-yl)carbonyl]imidazo[1,2-a]pyridine-5-carboxamide] it was above 5.70; in that of `NC[C@@H]1CCCN1C(=O)c1cn2c(C(=O)NCC34CC5CC(CC(C5)C3)C4)cccc2n1` [Compound 628, N-(adamantan-1-ylmethyl)-2-{[(2S)-2-(aminomethyl)pyrrolidin-1-yl]carbonyl}imidazo[1,2-a]pyridine-5-carboxamide], above 5.70.
Same read-out and setting: under `N[C@H]1CCN(C(=O)c2cn3c(C(=O)NCC45CC6CC(CC(C6)C4)C5)cccc3n2)C1` [Compound 629, N-(adamantan-1-ylmethyl)-2-{[(3S)-3-aminopyrrolidin-1-yl]carbonyl}imidazo[1,2-a]pyridine-5-carboxamide] stands above 5.70; under `NCC1CCN(C(=O)c2cn3c(C(=O)NCC45CC6CC(CC(C6)C4)C5)cccc3n2)CC1` [Compound 630, N-(adamantan-1-ylmethyl)-2-{[4-(aminomethyl)piperidin-1-yl]carbonyl}imidazo[1,2-a]pyridine-5-carboxamide], above 5.70.
Regarding `NCC1CCCN(C(=O)c2cn3c(C(=O)NCC45CC6CC(CC(C6)C4)C5)cccc3n2)C1` (stereo not shown) [Compound 631, N-(adamantan-1-ylmethyl)-2-{[3-(aminomethyl)piperidin-1-yl]carbonyl} imidazo[1,2-a]pyridine-5-carboxamide], the negative logarithm of the IC50 (pIC50) under setting [2] was above 5.70.
Still for that read-out and setting: in the case of `NCC1CCCCN1C(=O)c1cn2c(C(=O)NCC34CC5CC(CC(C5)C3)C4)cccc2n1` (stereo not shown) [Compound 632, N-(adamantan-1-ylmethyl)-2-{[2-(aminomethyl)piperidin-1-yl]carbonyl}imidazo[1,2-a]pyridine-5-carboxamide] it was above 5.70.
Still for that read-out and setting: under `NC[C@H]1CCCN1C(=O)c1cn2c(C(=O)NCC34CC5CC(CC(C5)C3)C4)cccc2n1` [Compound 633, N-(adamantan-1-ylmethyl)-2-{[(2R)-2-(aminomethyl)pyrrolidin-1-yl]carbonyl}imidazo[1,2-a]pyridine-5-carboxamide] stands above 5.70.
Same read-out and setting: under `NCC1CN(C(=O)c2cn3c(C(=O)NCC45CC6CC(CC(C6)C4)C5)cccc3n2)C1` [Compound 634, N-(adamantan-1-ylmethyl)-2-{[3-(aminomethyl)azetidin-1-yl]carbonyl}imidazo[1,2-a]pyridine-5-carboxamide] stands above 5.70; under `NC1CN(C(=O)c2cn3c(C(=O)NCC45CC6CC(CC(C6)C4)C5)cccc3n2)C1` [Compound 635, N-(adamantan-1-ylmethyl)-2-[(3-aminoazetidin-1-yl)carbonyl]imidazo[1,2-a]pyridine-5-carboxamide], above 5.70.
